Literature values, collected in PubChem BioAssay AID1259409 (Chemical Carcinogenesis Research Information System (CCRIS), 2018).

Test system: rodent chemically induced tumor inhibition, incidence and multiplicity
Assay: CCRIS tumor inhibitor studies

SMILES: COc1cc(C[C@@H](CO)[C@H](CO)Cc2ccc(O)c(OC)c2)ccc1O
- tumour outcome (control, treated, inhibition, significance) (Carcinogen: 7,12-DIMETHYLBENZ[A]ANTHRACENE, 57-97-6, Dose [Inhibitor]: 0, 1.5 MG IN 1 ML OF DISTILLED WATER 1/D FOR 20 WK BEGINNING 1 WK POST CARCINOGEN DOSE (STUDY DURATION: 21 WK), Route [Inhibitor]: GAVAGE, Species: RAT, Strain/Sex: SPRAGUE-DAWLEY/FEMALE, Target Tissue: Type of Lesion: MAMMARY GLAND: TUMOR, Dose [Carcinogen]: 5 MG IN 1 ML CORN OIL ONCE, Promoter: NONE USED): 26/30 (87%), 23/30 (77%), 11%, not significant

SMILES: CSCC[C@H](NC(C)=O)C(=O)O
- tumour outcome (control, treated, inhibition, significance) (Carcinogen: 7,12-DIMETHYLBENZ[A]ANTHRACENE, 57-97-6, Dose [Inhibitor]: 0.06 MMOL/G DIET DAILY FOR 17 WK STARTING 1 WK PRIOR TO CARCINOGEN TREATMENT AND CONTINUING THROUGH THE END OF THE STUDY, Route [Inhibitor]: ORAL, Species: RAT, Strain/Sex: SPRAGUE-DAWLEY/FEMALE, Target Tissue: Type of Lesion: MAMMARY GLAND: TUMOR, Dose [Carcinogen]: 12 MG IN 1 ML OLIVE OIL ONCE, Promoter: NONE USED): 59%, 69%, -17%, not calculated

SMILES: COc1ccc([Se])cc1
- tumour outcome (control, treated, inhibition, significance) (Carcinogen: AZOXYMETHANE, 25843-45-2, Dose [Inhibitor]: 0, 50 PPM IN HIGH-FAT DIET BEGINNING 2 WK PRIOR TO CARCINOGEN AND CONTINUING UNTIL 2 WK POST CARCINOGEN (STUDY DURATION:, Route [Inhibitor]: ORAL, Species: RAT, Strain/Sex: F344/FEMALE, Target Tissue: Type of Lesion: COLON: ADENOMA, ADENOCARCINOMA, Dose [Carcinogen]: 15 MG/KG IN NORMAL SALINE 1/WK FOR 3 WK, Promoter: NONE USED): 27/29 (93%), 15/31 (48%), 48%, p<0.05
- tumour outcome (control, treated, inhibition, significance) (Carcinogen: AZOXYMETHANE, 25843-45-2, Dose [Inhibitor]: 0, 50 PPM IN HIGH-FAT DIET BEGINNING 2 WK PRIOR TO CARCINOGEN AND CONTINUING UNTIL 2 WK POST CARCINOGEN (STUDY DURATION:, Route [Inhibitor]: ORAL, Species: RAT, Strain/Sex: F344/FEMALE, Target Tissue: Type of Lesion: KIDNEY: ADENOMA, ADENOCARCINOMA, NEPHROBLASTOMA, Dose [Carcinogen]: 15 MG/KG IN NORMAL SALINE 1/WK FOR 3 WK, Promoter: NONE USED): 15/29 (52%), 8/31 (26%), 50%, p<.05
- tumour outcome (control, treated, inhibition, significance) (Carcinogen: AZOXYMETHANE, 25843-45-2, Dose [Inhibitor]: 0, 50 PPM IN HIGH-FAT DIET BEGINNING 2 WK PRIOR TO CARCINOGEN AND CONTINUING UNTIL 2 WK POST CARCINOGEN (STUDY DURATION:, Route [Inhibitor]: ORAL, Species: RAT, Strain/Sex: F344/FEMALE, Target Tissue: Type of Lesion: SMALL INTESTINE: ADENOMA, ADENOCARCINOMA, Dose [Carcinogen]: 15 MG/KG IN NORMAL SALINE 1/WK FOR 3 WK, Promoter: NONE USED): 3/29 (10%), 5/31 (16%), -60%, not significant

SMILES: C[N+](C)(C)CCO
- tumour outcome (control, treated, inhibition, significance) (Carcinogen: 3'-METHYL-4-DIMETHYLAMINOAZOBENZENE, 55-80-1, Dose [Inhibitor]: 0.1% IN DIET DAILY FOR 4 WK STARTING AFTER 4 WK OF CARCINOGEN TREATMENT (STUDY DURATION: 20 WK), Route [Inhibitor]: ORAL, Species: RAT, Target Tissue: Type of Lesion: LIVER: TUMOR, Dose [Carcinogen]: 0.064% IN DIET DAILY FOR 8 WK 4 WK BEFORE AND ANOTHER 4 WK AFTER AGENT TREATMENT, Promoter: NONE USED): 7/9 (78%), 9/12 (75%), 4%, not calculated
- tumour outcome (control, treated, inhibition, significance) (Carcinogen: DIETHYLNITROSAMINE, 55-18-5, Dose [Inhibitor]: 0, 1% IN DIET BEGINNING 1 WK POST CARCINOGEN DOSE (STUDY DURATION: 52 WK), Route [Inhibitor]: ORAL, Species: MOUSE, Strain/Sex: C3H/MALE, Target Tissue: Type of Lesion: LIVER: ADENOMA, Dose [Carcinogen]: 150 MG/KG ONCE, Promoter: PHENOBARBITAL, 50-06-6): 16%, 11%, 31%, not calculated
- tumour outcome (control, treated, inhibition, significance) (Carcinogen: DIETHYLNITROSAMINE, 55-18-5, Dose [Inhibitor]: 0, 1% IN DIET BEGINNING 1 WK POST CARCINOGEN DOSE (STUDY DURATION: 52 WK), Route [Inhibitor]: ORAL, Species: MOUSE, Strain/Sex: C3H/MALE, Target Tissue: Type of Lesion: LIVER: CARCINOMA, Dose [Carcinogen]: 150 MG/KG ONCE, Promoter: PHENOBARBITAL, 50-06-6): 74%, 72%, 3%, not calculated
- tumour outcome (control, treated, inhibition, significance) (Carcinogen: DIETHYLNITROSAMINE, 55-18-5, Dose [Inhibitor]: 0, 1% IN DIET BEGINNING 1 WK POST CARCINOGEN DOSE (STUDY DURATION: 52 WK), Route [Inhibitor]: ORAL, Species: MOUSE, Strain/Sex: C3H/MALE, Target Tissue: Type of Lesion: LUNG: ADENOMA OR ADENOCARCINOMA, Dose [Carcinogen]: 150 MG/KG ONCE, Promoter: NONE USED): 6/14 (43%), 13/24 (54%), -26%, not calculated
- tumour outcome (control, treated, inhibition, significance) (Carcinogen: DIETHYLNITROSAMINE, 55-18-5, Dose [Inhibitor]: 0, 1% IN DIET BEGINNING 1 WK POST CARCINOGEN DOSE (STUDY DURATION: 52 WK), Route [Inhibitor]: ORAL, Species: MOUSE, Strain/Sex: C3H/MALE, Target Tissue: Type of Lesion: LUNG: ADENOMA OR ADENOCARCINOMA, Dose [Carcinogen]: 150 MG/KG ONCE, Promoter: PHENOBARBITAL, 50-06-6): 7/19 (37%), 4/18 (22%), 41%, not calculated
- tumour outcome (control, treated, inhibition, significance) (Carcinogen: DIETHYLNITROSAMINE, 55-18-5, Dose [Inhibitor]: 0, 1% IN DIET BEGINNING 1 WK PRIOR TO POST CARCINOGEN DOSE (STUDY DURATION: 52 WK), Route [Inhibitor]: ORAL, Species: MOUSE, Strain/Sex: C3H/MALE, Target Tissue: Type of Lesion: LIVER: ADENOMA, Dose [Carcinogen]: 150 MG/KG ONCE, Promoter: NONE USED): 14%, 21%, -50%, not calculated
- tumour outcome (control, treated, inhibition, significance) (Carcinogen: ETHIONINE, 13073-35-3, Dose [Inhibitor]: 2.1 MMOL/100 G DIET DAILY FOR 8 MO ADMINISTERED SIMULTANEOUSLY WITH CARCINOGEN FOLLOWED BY 2 MO ON BASAL DIET (STUDY DUR, Route [Inhibitor]: ORAL, Species: RAT, Strain/Sex: WISTAR/MALE, FEMALE, Target Tissue: Type of Lesion: LIVER: CARCINOMA, Dose [Carcinogen]: 0.25% OF DIET DAILY FOR 8 MO, Promoter: NONE USED): 9/10 (90%), 5/9 (56%), 38%, not calculated
- tumour outcome (control, treated, inhibition, significance) (Carcinogen: ETHIONINE, 13073-35-3, Dose [Inhibitor]: 4.2 MMOL/100 G DIET DAILY FOR 8 MO ADMINISTERED SIMULTANEOUSLY WITH CARCINOGEN FOLLOWED BY 4 MO ON BASAL DIET (STUDY DUR, Route [Inhibitor]: ORAL, Species: RAT, Strain/Sex: WISTAR/MALE, Target Tissue: Type of Lesion: LIVER: CARCINOMA, Dose [Carcinogen]: 0.25% OF DIET DAILY FOR 8 MO, Promoter: NONE USED): 8/8 (100%), 6/10 (60%), 40%, not calculated
- tumour outcome (control, treated, inhibition, significance) (Carcinogen: ETHIONINE, 13073-35-3, Dose [Inhibitor]: 5.7 MMOL/100 G DIET DAILY FOR 8 MO ADMINISTERED SIMULTANEOUSLY WITH CARCINOGEN FOLLOWED BY 4 MO ON BASAL DIET (STUDY DUR, Route [Inhibitor]: ORAL, Species: RAT, Strain/Sex: WISTAR/MALE, Target Tissue: Type of Lesion: LIVER: CARCINOMA, Dose [Carcinogen]: 0.25% OF DIET DAILY FOR 8 MO, Promoter: NONE USED): 8/8 (100%), 7/10 (70%), 30%, not calculated

SMILES: O=c1oc2ccccc2c(O)c1Cc1c(O)c2ccccc2oc1=O
- tumour outcome (control, treated, inhibition, significance) (Carcinogen: 17BETA-ESTRADIOL, 50-28-2, Dose [Inhibitor]: 0, 0.09% IN DIET BEGINNING 5 D POST CARCINOGEN DOSE (STUDY DURATION: 7.5 MO), Route [Inhibitor]: ORAL, Species: HAMSTER, Strain/Sex: SYRIAN/MALE, Target Tissue: Type of Lesion: KIDNEY: TUMOR, Dose [Carcinogen]: 25 MG PELLET REPLACED WITH A SECOND PELLET AFTER 4 MO, Promoter: NONE USED): 13/13 (100%), 7/12 (58%), 42%, p<0.05
